System: Pseudomonas aeruginosa
Experiment: MIC, standard two-fold dilution test in microtiter
Format: cell-based
Settings: against Pseudomonas aeruginosa
Procedure: Broth cultures are diluted enough so that the final inoculum is about 10^4 colony forming units/ml (CFU/mi).

For teicoplanin, the MIC was ≥ 32 microgram/ml.

— EP0465481B1, “NEW S[…] DERIVATIVES OF TEICOPLANIN” (GRUPPO LEPETIT S.p.A., priority 1989, dated 1990)
